According to ChEMBL document CHEMBL1151508, “Preparation and activities of 4-epi and 4-deoxy-4-amino analogs derived from 9-deoxo-8a-aza-8a-homoerythromycin A” (1994):
Converted amounts (≈) assume the structure as drawn.

Tests used:
Assay type in all cases: functional
[1] = tested on: Escherichia coli; experiment: In vitro minimum inhibitory concentration against Escherichia coli MB2884.
[2] = tested on: Haemophilus influenzae; experiment: In vitro minimum inhibitory concentration against Haemophilus influenzae MB5363.
[3] = tested on: Klebsiella pneumoniae; experiment: In vitro minimum inhibitory concentration against Klebsiella pneumoniae MB4005.
[4] = tested on: Streptococcus pneumoniae; experiment: In vitro minimum inhibitory concentration against Streptococcus pneumoniae CL2883.
[5] = tested on: Staphylococcus aureus; experiment: In vitro minimum inhibitory concentration against Staphylococcus aureus MB2865.
[6] = tested on: Enterococcus faecalis; experiment: In vitro minimum inhibitory concentration against Enterococcus faecalis MB5407.

Row | SMILES | MIC [1] | MIC [2] | MIC [3] | MIC [4] | MIC [5] | MIC [6]
1 | CCCN1C[C@H](C)[C@@H](O)[C@](C)(O)[C@@H](CC)OC(=O)[C@H](C)[C@@H](O[C@H]2C[C@@](C)(OC)C(N)[C@H](C)O2)[C@H](C)[C@@H](O[C@@H]2O[C@H](C)C[C@H](N(C)C)[C@H]2O)[C@](C)(O)C[C@H]1C (some centres undefined) | 0.5 µg/mL (≈ 0.644 µM) | 0.5 µg/mL (≈ 0.644 µM) | 0.5 µg/mL (≈ 0.644 µM) | 0.06 µg/mL (≈ 0.0773 µM) | 1 µg/mL (≈ 1.29 µM) | 2 µg/mL (≈ 2.58 µM)
2 | CC[C@H]1OC(=O)[C@H](C)[C@@H](O[C@H]2C[C@@](C)(OC)[C@@H](NC(C)=O)[C@H](C)O2)[C@H](C)[C@@H](O[C@@H]2O[C@H](C)C[C@H](N(C)C)[C@H]2OC(=O)OCC2c3ccccc3-c3ccccc32)[C@](C)(O)C[C@@H](C)N(C)C[C@H](C)[C@@H](O)[C@]1(C)O | 2 µg/mL (≈ 1.98 µM) | 8 µg/mL (≈ 7.9 µM) | 2 µg/mL (≈ 1.98 µM) | 0.25 µg/mL (≈ 0.247 µM) | 2 µg/mL (≈ 1.98 µM) | 8 µg/mL (≈ 7.9 µM)
3 | CC[C@H]1OC(=O)[C@H](C)[C@@H](O[C@H]2C[C@@](C)(OC)[C@H](N(C)C)[C@H](C)O2)[C@H](C)[C@@H](O[C@@H]2O[C@H](C)C[C@H](N(C)C)[C@H]2OC(=O)OCC2c3ccccc3-c3ccccc32)[C@](C)(O)C[C@@H](C)N(C)C[C@H](C)[C@@H](O)[C@]1(C)O | 0.5 µg/mL (≈ 0.501 µM) | 2 µg/mL (≈ 2 µM) | 2 µg/mL (≈ 2 µM) | 0.5 µg/mL (≈ 0.501 µM) | 32 µg/mL (≈ 32.1 µM) | 16 µg/mL (≈ 16 µM)
4 | CC[C@H]1OC(=O)[C@H](C)[C@@H](O[C@H]2C[C@@](C)(OC)[C@@H](N)[C@H](C)O2)[C@H](C)[C@@H](O[C@@H]2O[C@H](C)C[C@H](N(C)C)[C@H]2OC(=O)OCC2c3ccccc3-c3ccccc32)[C@](C)(O)C[C@@H](C)N(C)C[C@H](C)[C@@H](O)[C@]1(C)O | 0.13 µg/mL (≈ 0.134 µM) | 0.25 µg/mL (≈ 0.258 µM) | 0.13 µg/mL (≈ 0.134 µM) | 0.06 µg/mL (≈ 0.0618 µM) | 1 µg/mL (≈ 1.03 µM) | 2 µg/mL (≈ 2.06 µM)
5 | C=CCN1C[C@H](C)[C@@H](O)[C@](C)(O)[C@@H](CC)OC(=O)[C@H](C)[C@@H](O[C@H]2C[C@@](C)(OC)C(N)[C@H](C)O2)[C@H](C)[C@@H](O[C@@H]2O[C@H](C)C[C@H](N(C)C)[C@H]2O)[C@](C)(O)C[C@H]1C (some centres undefined) | 0.5 µg/mL (≈ 0.646 µM) | 0.5 µg/mL (≈ 0.646 µM) | 0.25 µg/mL (≈ 0.323 µM) | 0.06 µg/mL (≈ 0.0775 µM) | 2 µg/mL (≈ 2.58 µM) | 4 µg/mL (≈ 5.17 µM)
6 | CC[C@H]1OC(=O)[C@H](C)[C@@H](O[C@H]2C[C@@](C)(OC)[C@H](NC(C)=O)[C@H](C)O2)[C@H](C)[C@@H](O[C@@H]2O[C@H](C)C[C@H](N(C)C)[C@H]2OC(=O)OCC2c3ccccc3-c3ccccc32)[C@](C)(O)C[C@@H](C)N(C)C[C@H](C)[C@@H](O)[C@]1(C)O | 1 µg/mL (≈ 0.988 µM) | 4 µg/mL (≈ 3.95 µM) | 4 µg/mL (≈ 3.95 µM) | 0.5 µg/mL (≈ 0.494 µM) | 16 µg/mL (≈ 15.8 µM) | 8 µg/mL (≈ 7.9 µM)
7 | CC[C@H]1OC(=O)[C@H](C)[C@@H](O[C@H]2C[C@@](C)(OC)[C@@H](n3cccc3)[C@H](C)O2)[C@H](C)[C@@H](O[C@@H]2O[C@H](C)C[C@H](N(C)C)[C@H]2OC(=O)OCC2c3ccccc3-c3ccccc32)[C@](C)(O)C[C@@H](C)N(C)C[C@H](C)[C@@H](O)[C@]1(C)O | 4 µg/mL (≈ 3.92 µM) | 4 µg/mL (≈ 3.92 µM) | 4 µg/mL (≈ 3.92 µM) | 0.13 µg/mL (≈ 0.127 µM) | 4 µg/mL (≈ 3.92 µM) | 2 µg/mL (≈ 1.96 µM)
8 | C=CCN1C[C@H](C)[C@@H](O)[C@](C)(O)[C@@H](CC)OC(=O)[C@H](C)[C@@H](O[C@H]2C[C@@](C)(OC)[C@@H](N)[C@H](C)O2)[C@H](C)[C@@H](O[C@@H]2O[C@H](C)C[C@H](N(C)C)[C@H]2OC(=O)OCC2c3ccccc3-c3ccccc32)[C@](C)(O)C[C@H]1C | 0.25 µg/mL (≈ 0.251 µM) | 1 µg/mL (≈ 1 µM) | 0.13 µg/mL (≈ 0.13 µM) | 0.03 µg/mL (≈ 0.0301 µM) | 1 µg/mL (≈ 1 µM) | 4 µg/mL (≈ 4.01 µM)
9 | CC[C@H]1OC(=O)[C@H](C)[C@@H](O[C@H]2C[C@@](C)(OC)[C@H](N)[C@H](C)O2)[C@H](C)[C@@H](O[C@@H]2O[C@H](C)C[C@H](N(C)C)[C@H]2OC(=O)OCC2c3ccccc3-c3ccccc32)[C@](C)(O)C[C@@H](C)N(CCF)C[C@H](C)[C@@H](O)[C@]1(C)O | 0.25 µg/mL (≈ 0.249 µM) | 0.5 µg/mL (≈ 0.499 µM) | 0.13 µg/mL (≈ 0.13 µM) | 0.03 µg/mL (≈ 0.0299 µM) | 0.25 µg/mL (≈ 0.249 µM) | 1 µg/mL (≈ 0.998 µM)
10 | CC[C@H]1OC(=O)[C@H](C)[C@@H](O[C@H]2C[C@@](C)(OC)[C@H](n3cccc3)[C@H](C)O2)[C@H](C)[C@@H](O[C@@H]2O[C@H](C)C[C@H](N(C)C)[C@H]2OC(=O)OCC2c3ccccc3-c3ccccc32)[C@](C)(O)C[C@@H](C)N(C)C[C@H](C)[C@@H](O)[C@]1(C)O | 4 µg/mL (≈ 3.92 µM) | 16 µg/mL (≈ 15.7 µM) | 8 µg/mL (≈ 7.84 µM) | 0.25 µg/mL (≈ 0.245 µM) | 8 µg/mL (≈ 7.84 µM) | 4 µg/mL (≈ 3.92 µM)
11 | CC[C@H]1OC(=O)[C@H](C)[C@@H](O[C@H]2C[C@@](C)(OC)[C@@H](O)[C@H](C)O2)[C@H](C)[C@@H](O[C@@H]2O[C@H](C)C[C@H](N(C)C)[C@H]2O)[C@](C)(O)C[C@@H](C)CN(C)[C@H](C)[C@@H](O)[C@]1(C)O [AZITHROMYCIN] | 1 µg/mL (≈ 1.34 µM) | 0.5 µg/mL (≈ 0.668 µM) | 2 µg/mL (≈ 2.67 µM) | 0.03 µg/mL (≈ 0.0401 µM) | 1 µg/mL (≈ 1.34 µM) | 4 µg/mL (≈ 5.34 µM)
12 | CC[C@H]1OC(=O)[C@H](C)[C@@H](O[C@H]2C[C@@](C)(OC)[C@@H](O)[C@H](C)O2)[C@H](C)[C@@H](O[C@@H]2O[C@H](C)C[C@H](N(C)C)[C@H]2O)[C@](C)(O)C[C@@H](C)C(=O)[C@H](C)[C@@H](O)[C@]1(C)O [ERYTHROMYCIN] | 32 µg/mL (≈ 43.6 µM) | 2 µg/mL (≈ 2.73 µM) | 32 µg/mL (≈ 43.6 µM) | 0.02 µg/mL (≈ 0.0273 µM) | 0.25 µg/mL (≈ 0.341 µM) | 1 µg/mL (≈ 1.36 µM)
13 | CC[C@H]1OC(=O)[C@H](C)[C@@H](O[C@H]2C[C@@](C)(OC)[C@@H](O)[C@H](C)O2)[C@H](C)[C@@H](O[C@@H]2O[C@H](C)C[C@H](N(C)C)[C@H]2O)[C@](C)(O)C[C@@H](C)N(C)C[C@H](C)[C@@H](O)[C@]1(C)O [L-701677] | 1 µg/mL (≈ 1.34 µM) | 1 µg/mL (≈ 1.34 µM) | 1 µg/mL (≈ 1.34 µM) | 0.03 µg/mL (≈ 0.0401 µM) | 0.5 µg/mL (≈ 0.668 µM) | 2 µg/mL (≈ 2.67 µM)

Second part, the compound after the results:

Row | MIC [1] | MIC [2] | MIC [3] | MIC [4] | MIC [5] | MIC [6] | SMILES
14 | 1 µg/mL (≈ 1 µM) | 2 µg/mL (≈ 2 µM) | 2 µg/mL (≈ 2 µM) | 0.5 µg/mL (≈ 0.501 µM) | 8 µg/mL (≈ 8.01 µM) | 8 µg/mL (≈ 8.01 µM) | CC[C@H]1OC(=O)[C@H](C)[C@@H](O[C@H]2C[C@@](C)(OC)[C@@H](N(C)C)[C@H](C)O2)[C@H](C)[C@@H](O[C@@H]2O[C@H](C)C[C@H](N(C)C)[C@H]2OC(=O)OCC2c3ccccc3-c3ccccc32)[C@](C)(O)C[C@@H](C)N(C)C[C@H](C)[C@@H](O)[C@]1(C)O
15 | 0.25 µg/mL (≈ 0.334 µM) | 1 µg/mL (≈ 1.34 µM) | 0.13 µg/mL (≈ 0.174 µM) | 0.03 µg/mL (≈ 0.0401 µM) | 2 µg/mL (≈ 2.67 µM) | 4 µg/mL (≈ 5.35 µM) | CC[C@H]1OC(=O)[C@H](C)[C@@H](O[C@H]2C[C@@](C)(OC)C(N)[C@H](C)O2)[C@H](C)[C@@H](O[C@@H]2O[C@H](C)C[C@H](N(C)C)[C@H]2O)[C@](C)(O)C[C@@H](C)N(C)C[C@H](C)[C@@H](O)[C@]1(C)O (some centres undefined)
16 | 1 µg/mL (≈ 1.34 µM) | 1 µg/mL (≈ 1.34 µM) | 4 µg/mL (≈ 5.34 µM) | 0.06 µg/mL (≈ 0.0801 µM) | 0.5 µg/mL (≈ 0.668 µM) | 1 µg/mL (≈ 1.34 µM) | CC[C@H]1OC(=O)[C@H](C)[C@@H](O[C@H]2C[C@@](C)(OC)[C@H](O)[C@H](C)O2)[C@H](C)[C@@H](O[C@@H]2O[C@H](C)C[C@H](N(C)C)[C@H]2O)[C@](C)(O)C[C@@H](C)N(C)C[C@H](C)[C@@H](O)[C@]1(C)O
17 | 0.25 µg/mL (≈ 0.258 µM) | 0.5 µg/mL (≈ 0.515 µM) | 0.25 µg/mL (≈ 0.258 µM) | 0.06 µg/mL (≈ 0.0618 µM) | 1 µg/mL (≈ 1.03 µM) | 2 µg/mL (≈ 2.06 µM) | CC[C@H]1OC(=O)[C@H](C)[C@@H](O[C@H]2C[C@@](C)(OC)[C@H](N)[C@H](C)O2)[C@H](C)[C@@H](O[C@@H]2O[C@H](C)C[C@H](N(C)C)[C@H]2OC(=O)OCC2c3ccccc3-c3ccccc32)[C@](C)(O)C[C@@H](C)N(C)C[C@H](C)[C@@H](O)[C@]1(C)O
18 | 0.25 µg/mL (≈ 0.249 µM) | 1 µg/mL (≈ 0.998 µM) | 0.13 µg/mL (≈ 0.13 µM) | 0.03 µg/mL (≈ 0.0299 µM) | 0.5 µg/mL (≈ 0.499 µM) | 2 µg/mL (≈ 2 µM) | CC[C@H]1OC(=O)[C@H](C)[C@@H](O[C@H]2C[C@@](C)(OC)[C@@H](N)[C@H](C)O2)[C@H](C)[C@@H](O[C@@H]2O[C@H](C)C[C@H](N(C)C)[C@H]2OC(=O)OCC2c3ccccc3-c3ccccc32)[C@](C)(O)C[C@@H](C)N(CCF)C[C@H](C)[C@@H](O)[C@]1(C)O
19 | 0.5 µg/mL (≈ 0.502 µM) | 0.5 µg/mL (≈ 0.502 µM) | 0.25 µg/mL (≈ 0.251 µM) | 0.03 µg/mL (≈ 0.0301 µM) | 1 µg/mL (≈ 1 µM) | 2 µg/mL (≈ 2.01 µM) | C=CCN1C[C@H](C)[C@@H](O)[C@](C)(O)[C@@H](CC)OC(=O)[C@H](C)[C@@H](O[C@H]2C[C@@](C)(OC)[C@H](N)[C@H](C)O2)[C@H](C)[C@@H](O[C@@H]2O[C@H](C)C[C@H](N(C)C)[C@H]2OC(=O)OCC2c3ccccc3-c3ccccc32)[C@](C)(O)C[C@H]1C
